Laboratory results reported in patent publication US9645154B2, “Method for detecting cancer cell” (ARKRAY, Inc., priority 2010, dated 2017).

Key:
Blood cells [1] = assay: Labeled sugar incorporation, fluorescence microscopy image analysis (false-positive/negative rate); type: cell-based, human; conditions: 10 mM, 5 min, 23° C.
Description: (§1) Blood was collected from a human subject using a vacuum blood collection tube (with EDTA•2K). Blood cells were separated using HetaSep (STEMCELL Technologies) in accordance with manufacturer's instructions.
(§2) When performing the hemolyzing treatment, the blood cell fraction collected as described above was hemolyzed using ammonium chloride (STEMCELL Technologies) according to the manufacture's manuals.
(§3) The number of the cells was counted for each cell line using a hemacytometer in accordance with the conventional method, and then 10^5 to 10^6 cells per sample (cell suspension) was aliquoted. Each of the sample was centrifuged to remove the supernatant. Subsequently, 2-NBDG (Wako Pure Chemical Industries, Ltd.; at the final concentration given in Table 3 or 4) dissolved in Dulbecco's PBS (−) was added thereto, and the cells were suspended well. After the reaction, Dulbecco's PBS (−) was added to the mixture, and the resultant was centrifuged to remove the supernatant. The cells were resuspended with Dulbecco's PBS (−) and centrifuged, and the supernatant was removed again. The steps of resuspending cells with Dulbecco's PBS (−), centrifuging and removing the supernatant were then repeated 2 to 3 times, thereby washing the cells thoroughly. The cells were resuspended with Dulbecco's PBS (−), the concentration thereof was adjusted, and then added dropwise to a 384-well plate. The plate was centrifuged to spin down the cells. The image was captured with a fluorescence microscope (Nikon Corp.) using B-2A filter combination (Nikon Corp.). The B-2A set covers the following wavelengths. EX (excitation wavelength): 475±15 nm, DM: 505 nm or longer, BA (fluorescence wavelength) 520 nm or longer.
(§4) The acquired images were analyzed using an image analysis software NIS-ELEMENTS (trade name, Nikon Corp.) to evaluate the fluorescence intensity of the cell. […]

[2] = system: human fibrosarcoma cell line HT1080; assay: Labeled sugar incorporation, fluorescence microscopy image analysis (positive rate); type: cell-based; conditions: 10 mM, 5 min, 23° C.
Description: (§5) In accordance with the conventional method, cultured human fibrosarcoma cell line HT1080 (DS Pharma Biomedical Co., Ltd.) was harvested with trypsin (Invitrogen). The human gastric cancer cell line SNU-1 (ATCC), which is a suspension cell line, was directly harvested without any trypsin treatment. The cell suspension of the harvested cancer cells was centrifuged, and the supernatant was removed. The cells were resuspended with Dulbecco's PBS (−) (Nissui Pharmaceutical Co., Ltd.) and centrifuged, and the supernatant was removed again.
as §2, §3, §4
In a manner similar to Example 2, each of human breast adenocarcinoma cells (cell line name: MCF-7; DS Pharma Biomedical Co., Ltd.), human colon adenocarcinoma cells (cell line name: SW620; DS Pharma Biomedical Co., Ltd.), human prostate cancer cells (cell line name: PC3; DS Pharma Biomedical Co., Ltd.), human alveolar epithelial cancer cells (cell line name: NCI-H358; DS Pharma Biomedical Co., Ltd.), human gastric cancer cells (cell line name: SNU-1; ATCC) and human fibrosarcoma cells (cell line name: HT1080; DS Pharma Biomedical Co., Ltd.) was detected with the labeled sugar (2-NBDG).

Blood cells [3] = assay: Labeled amino acid incorporation, fluorescence microscopy image analysis (false-positive/negative rate); type: cell-based, human; conditions: hemolyzed, 30 min, 37° C.; for Negative rate (Blood cells) / Positive rate (Blood cells): 1 mM
Description: as §1
When performing the hemolyzing treatment, the blood cell fraction collected as described above was hemolyzed using ammonium chloride (STEMCELL Technologies) at room temperature according to the manufacture's manuals.
The number of the cells was counted for each cell line using a hemacytometer in accordance with the conventional method, and then 10^5 to 10^6 cells per sample (cell suspension) was aliquoted. The sample was centrifuged to remove the supernatant. Subsequently, H-Ala(2-Bacd)-OH (Watanabe Chemical Industries, Ltd.) was added thereto (at the final concentration given in Table 5 or 6), and the cells were suspended well. After the reaction, Dulbecco's PBS (−) was added to the mixture, and the resultant was centrifuged to remove the supernatant. The cells were resuspended with Dulbecco's PBS and centrifuged, and the supernatant was removed again. The steps of resuspending cells with Dulbecco's PBS (−), centrifuging and removing the supernatant were then repeated 2 to 3 times, thereby washing the cells thoroughly. The cells were resuspended with Dulbecco's PBS (−), the concentration thereof was adjusted, and then added dropwise to a 384-well plate. The plate was centrifuged to spin down the cells. The image was captured with a fluorescence microscope (Nikon Corp.) using B-2A filter set (Nikon Corp.). The B-2A set covers the same wavelengths as those in Example 2. The acquired images were analyzed using an image analysis software NIS-ELEMENTS (trade name, Nikon Corp.) to evaluate the fluorescence intensity of the cell.
With regard to the labeling substance, H-Lys(DMACA)-OH (Watanabe Chemical Industries, Ltd.) or H-Glu(EDANS)—OH (Watanabe Chemical Industries, Ltd.) was used instead of using H-Ala(2-Bacd)-OH in the staining of Example 3.
(§6) Further, the fluorescence intensity of the cells was evaluated in a manner similar to Example 2, except the fluorescence filter covering the wavelengths of EX (excitation wavelength) of 365/±10, DM of 400 or longer and BA (fluorescence wavelength) of 470±20 was used based on the fluorescent property of the fluorescent substances.

[4] = system: human gastric cancer cell line SNU-1; assay: Labeled amino acid incorporation, fluorescence microscopy image analysis (positive rate); type: cell-based; conditions: 1 mM; hemolyzed, 30 min, 37° C.
Description: as §5, with “prostate cancer” for “fibrosarcoma”, “PC3” for “HT1080”
The number of the cells was counted for each cell line using a hemacytometer in accordance with the conventional method, and then 10^5 to 10^6 cells per sample (cell suspension) was aliquoted. The sample was centrifuged to remove the supernatant. […] The image was captured with a fluorescence microscope (Nikon Corp.) using B-2A filter set (Nikon Corp.). […] The acquired images were analyzed using an image analysis software NIS-ELEMENTS (trade name, Nikon Corp.) to evaluate the fluorescence intensity of the cell. […]
as §6

Row | SMILES | Negative rate (Blood cells (fresh blood)) (Blood cells [1]; hemolyzed) [%] | Positive rate (Blood cells (fresh blood)) (Blood cells [1]; hemolyzed) [%] | Negative rate (Blood cells (fresh blood)) (Blood cells [1]; not hemolyzed) [%] | Positive rate (Blood cells (fresh blood)) (Blood cells [1]; not hemolyzed) [%] | Positive rate (Fibrosarcoma cell line) ([2]; hemolyzed) [%] | Positive rate (Fibrosarcoma cell line) ([2]; not hemolyzed) [%] | Negative rate (Blood cells) (Blood cells [3]) [%] | Positive rate (Blood cells) (Blood cells [3]) [%] | selectivity for a cancer cell in view of a negative rate (Blood cells [3]; gastric cancer cell line versus blood cells, Table 15) | Positive rate (Gastric cancer cell line) [4] [%]
1 | O=[N+]([O-])c1ccc(NCC2OC(O)C(O)C(O)[C@@H]2O)c2nonc12 (stereo partly drawn) [6-NBDG, 6-[N-(7-nitrobenz-2-oxa-1,3-diazol-4-yl)amino]-6-deoxy-D-glucose] | 99.1 | 0.9 | 99.1 | 0.9 | 78.7 | 71.1 | – | – | – | –
2 | N[C@@H](CCC(=O)NCCNc1cccc2c(S(=O)(=O)O)cccc12)C(=O)O [H-Glu(EDANS)-OH] | – | – | – | – | – | – | 99.4 | 0.6 | high selectivity | 56.9
3 | CN(C)c1ccc2c(CC(=O)NCCCC[C@H](N)C(=O)O)cc(=O)oc2c1 [H-Lys(DMACA)-OH] | – | – | – | – | – | – | 82.3 | 17.7 | – | 86.1
